Assay results published in ChEMBL document CHEMBL4251577, “Synthesis and antiproliferative activity of pyrrolo[2,3-b]pyridine derivatives bearing the 1,8-naphthyridin-2-one moiety” (Eur J Med Chem, 2018).

Legend:
A549 [1] = assay: cells; details: Homo sapiens, A549, 72 h
Description: Antiproliferative activity against human A549 cells after 72 hrs by MTT assay

HT-29 [2] = assay: cells; details: Homo sapiens, HT-29, 72 h
[3] = biological target: Platelet-derived growth factor receptor beta (Homo sapiens, UniProt P09619); assay: Inhibition of PDGFRbeta (unknown origin) using poly(Glu, Tyr) 4:1 as substrate after 30 mins by HTRF assay
Platelet-derived growth factor receptor beta, sequence (P09619 whole entry): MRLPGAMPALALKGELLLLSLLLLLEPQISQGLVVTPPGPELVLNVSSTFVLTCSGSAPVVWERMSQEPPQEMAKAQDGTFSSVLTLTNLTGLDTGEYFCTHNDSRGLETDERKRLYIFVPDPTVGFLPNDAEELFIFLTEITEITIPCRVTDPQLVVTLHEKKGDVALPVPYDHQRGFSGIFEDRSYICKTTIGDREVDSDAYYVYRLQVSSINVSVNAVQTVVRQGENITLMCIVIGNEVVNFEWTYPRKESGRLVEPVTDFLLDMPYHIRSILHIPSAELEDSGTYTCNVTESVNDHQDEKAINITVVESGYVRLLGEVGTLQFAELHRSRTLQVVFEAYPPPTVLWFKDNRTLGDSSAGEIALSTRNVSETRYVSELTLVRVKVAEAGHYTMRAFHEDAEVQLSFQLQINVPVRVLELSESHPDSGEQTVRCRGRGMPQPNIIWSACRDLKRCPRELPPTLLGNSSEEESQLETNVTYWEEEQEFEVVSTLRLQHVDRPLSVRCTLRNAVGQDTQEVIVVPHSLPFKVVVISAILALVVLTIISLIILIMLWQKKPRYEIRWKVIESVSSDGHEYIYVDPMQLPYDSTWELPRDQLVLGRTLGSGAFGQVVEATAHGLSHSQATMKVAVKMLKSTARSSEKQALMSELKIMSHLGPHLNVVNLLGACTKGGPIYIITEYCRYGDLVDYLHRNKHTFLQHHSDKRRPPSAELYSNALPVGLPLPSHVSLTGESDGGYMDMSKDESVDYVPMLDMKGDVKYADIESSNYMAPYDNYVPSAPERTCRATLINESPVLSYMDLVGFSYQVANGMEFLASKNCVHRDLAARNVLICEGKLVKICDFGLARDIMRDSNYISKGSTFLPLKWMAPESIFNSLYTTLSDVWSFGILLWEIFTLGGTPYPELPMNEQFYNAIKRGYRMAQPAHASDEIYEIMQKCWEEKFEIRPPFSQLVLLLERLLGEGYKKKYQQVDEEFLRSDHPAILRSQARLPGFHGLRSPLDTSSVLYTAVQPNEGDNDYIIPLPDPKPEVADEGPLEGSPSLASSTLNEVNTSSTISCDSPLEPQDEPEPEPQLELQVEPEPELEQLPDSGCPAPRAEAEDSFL

[4] = biological target: Mast/stem cell growth factor receptor Kit (Homo sapiens, UniProt P10721); assay: Inhibition of cKIT (unknown origin) using poly(Glu, Tyr) 4:1 as substrate after 30 mins by HTRF assay
Mast/stem cell growth factor receptor Kit, sequence (P10721 whole entry): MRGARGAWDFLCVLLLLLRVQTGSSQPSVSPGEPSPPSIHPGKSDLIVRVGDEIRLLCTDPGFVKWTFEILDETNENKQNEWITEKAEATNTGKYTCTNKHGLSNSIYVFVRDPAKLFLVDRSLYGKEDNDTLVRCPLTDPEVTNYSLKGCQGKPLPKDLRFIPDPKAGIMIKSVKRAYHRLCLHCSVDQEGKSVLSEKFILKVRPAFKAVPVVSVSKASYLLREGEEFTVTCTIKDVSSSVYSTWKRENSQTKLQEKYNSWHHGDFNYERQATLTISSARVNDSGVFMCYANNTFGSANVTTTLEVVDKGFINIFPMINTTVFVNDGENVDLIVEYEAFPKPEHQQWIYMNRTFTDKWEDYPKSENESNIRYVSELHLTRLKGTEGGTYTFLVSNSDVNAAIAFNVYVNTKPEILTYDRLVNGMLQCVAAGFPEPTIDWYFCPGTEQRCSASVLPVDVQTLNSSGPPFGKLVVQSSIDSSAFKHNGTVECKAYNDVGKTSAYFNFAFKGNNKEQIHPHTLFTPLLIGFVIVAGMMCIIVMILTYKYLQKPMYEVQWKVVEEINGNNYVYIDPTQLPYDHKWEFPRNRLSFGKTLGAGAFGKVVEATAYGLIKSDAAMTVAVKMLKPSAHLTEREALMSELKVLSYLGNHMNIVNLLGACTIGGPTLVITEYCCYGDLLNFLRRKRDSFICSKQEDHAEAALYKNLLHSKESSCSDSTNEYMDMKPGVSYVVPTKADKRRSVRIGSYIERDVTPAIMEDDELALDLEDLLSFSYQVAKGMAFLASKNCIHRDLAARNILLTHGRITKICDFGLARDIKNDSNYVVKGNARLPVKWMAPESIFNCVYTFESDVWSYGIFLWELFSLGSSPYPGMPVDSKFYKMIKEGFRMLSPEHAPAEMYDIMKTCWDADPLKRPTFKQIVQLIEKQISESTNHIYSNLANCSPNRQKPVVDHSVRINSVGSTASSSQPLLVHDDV

U-87 MG = assay: Antiproliferative activity against human U87MG cells after 72 hrs by MTT assay; type: functional, cell-based, U-87MG ATCC
[5] = biological target: Hepatocyte growth factor receptor (Homo sapiens, UniProt P08581); assay: Inhibition of cMET (unknown origin) using poly(Glu,Tyr) 4:1 substrate after 30 mins by HTFR analysis
Hepatocyte growth factor receptor, sequence (P08581 whole entry): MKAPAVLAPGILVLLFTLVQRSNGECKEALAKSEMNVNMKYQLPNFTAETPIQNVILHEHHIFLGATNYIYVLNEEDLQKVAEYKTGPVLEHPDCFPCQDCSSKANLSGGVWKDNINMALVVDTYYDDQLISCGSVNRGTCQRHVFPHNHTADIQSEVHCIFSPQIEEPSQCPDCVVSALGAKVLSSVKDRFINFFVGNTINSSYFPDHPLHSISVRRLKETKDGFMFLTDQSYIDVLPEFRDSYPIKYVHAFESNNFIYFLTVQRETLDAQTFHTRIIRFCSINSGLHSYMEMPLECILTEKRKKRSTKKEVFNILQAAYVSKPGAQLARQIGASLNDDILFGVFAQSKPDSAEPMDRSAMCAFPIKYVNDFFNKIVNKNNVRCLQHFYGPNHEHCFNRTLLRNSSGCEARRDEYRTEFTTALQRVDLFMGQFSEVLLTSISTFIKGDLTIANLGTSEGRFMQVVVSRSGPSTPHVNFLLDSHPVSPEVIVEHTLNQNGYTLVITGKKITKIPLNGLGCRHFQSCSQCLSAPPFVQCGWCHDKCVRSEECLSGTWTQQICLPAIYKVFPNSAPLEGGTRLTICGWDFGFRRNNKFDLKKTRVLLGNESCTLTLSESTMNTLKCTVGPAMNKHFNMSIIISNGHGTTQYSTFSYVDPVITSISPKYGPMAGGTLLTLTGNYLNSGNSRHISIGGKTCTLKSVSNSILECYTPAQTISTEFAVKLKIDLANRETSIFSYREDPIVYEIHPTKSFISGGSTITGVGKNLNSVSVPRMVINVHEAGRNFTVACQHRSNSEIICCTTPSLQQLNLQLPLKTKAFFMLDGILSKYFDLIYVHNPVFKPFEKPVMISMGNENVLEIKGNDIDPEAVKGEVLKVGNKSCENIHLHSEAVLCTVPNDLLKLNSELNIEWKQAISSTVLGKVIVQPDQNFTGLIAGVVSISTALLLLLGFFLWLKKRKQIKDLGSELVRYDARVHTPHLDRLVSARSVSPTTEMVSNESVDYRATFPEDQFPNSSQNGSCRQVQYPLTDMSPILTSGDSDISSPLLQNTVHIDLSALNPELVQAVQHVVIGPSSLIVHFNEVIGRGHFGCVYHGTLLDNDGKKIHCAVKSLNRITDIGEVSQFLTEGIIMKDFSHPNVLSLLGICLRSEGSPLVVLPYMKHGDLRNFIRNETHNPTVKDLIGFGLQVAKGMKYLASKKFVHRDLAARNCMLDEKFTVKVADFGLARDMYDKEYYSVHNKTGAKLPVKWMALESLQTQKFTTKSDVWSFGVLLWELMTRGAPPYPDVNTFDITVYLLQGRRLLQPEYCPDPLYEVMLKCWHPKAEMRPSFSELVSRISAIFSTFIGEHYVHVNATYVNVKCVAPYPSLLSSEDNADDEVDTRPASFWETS

NCI-H460 [6] = assay: Potency index, ratio of foretinib IC50 to compound IC50 for antiproliferative activity against human NCI-H460 cells; type: functional
A549 [7] = assay: Potency index, ratio of foretinib IC50 to compound IC50 for antiproliferative activity against human A549 cells; type: functional
[8] = biological target: T1, Receptor-type tyrosine-protein kinase FLT3 (Homo sapiens, UniProt P36888); assay: Inhibition of Flt-3 (unknown origin) using poly(Glu, Tyr) 4:1 as substrate after 30 mins by HTRF assay
T1 sequence (P36888 whole entry): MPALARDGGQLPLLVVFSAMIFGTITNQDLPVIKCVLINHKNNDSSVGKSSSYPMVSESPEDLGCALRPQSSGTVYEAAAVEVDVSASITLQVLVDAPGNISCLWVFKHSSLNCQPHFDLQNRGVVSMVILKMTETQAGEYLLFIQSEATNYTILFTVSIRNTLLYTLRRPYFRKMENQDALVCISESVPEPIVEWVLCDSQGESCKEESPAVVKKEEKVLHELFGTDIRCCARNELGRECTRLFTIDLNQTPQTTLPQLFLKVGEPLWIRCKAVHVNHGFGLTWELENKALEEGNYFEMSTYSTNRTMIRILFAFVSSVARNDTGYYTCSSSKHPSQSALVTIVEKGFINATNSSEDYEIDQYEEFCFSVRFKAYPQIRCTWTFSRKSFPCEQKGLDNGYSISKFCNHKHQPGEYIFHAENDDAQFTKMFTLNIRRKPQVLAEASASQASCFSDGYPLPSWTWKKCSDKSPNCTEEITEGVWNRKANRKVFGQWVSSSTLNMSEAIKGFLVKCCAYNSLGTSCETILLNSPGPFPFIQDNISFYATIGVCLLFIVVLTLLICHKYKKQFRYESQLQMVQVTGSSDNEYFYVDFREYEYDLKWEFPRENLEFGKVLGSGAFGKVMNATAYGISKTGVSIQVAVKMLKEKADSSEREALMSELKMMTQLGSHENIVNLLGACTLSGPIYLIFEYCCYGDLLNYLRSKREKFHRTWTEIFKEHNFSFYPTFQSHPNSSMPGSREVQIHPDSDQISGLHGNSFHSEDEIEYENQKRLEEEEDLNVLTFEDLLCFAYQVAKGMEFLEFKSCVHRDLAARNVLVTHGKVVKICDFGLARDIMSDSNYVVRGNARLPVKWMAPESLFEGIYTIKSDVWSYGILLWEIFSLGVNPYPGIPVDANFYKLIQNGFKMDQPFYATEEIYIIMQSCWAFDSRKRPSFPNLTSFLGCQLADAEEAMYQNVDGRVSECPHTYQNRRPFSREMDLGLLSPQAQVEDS

NCI-H460 [9] = assay: Antiproliferative activity against human NCI-H460 cells after 72 hrs by MTT assay; type: functional, cell-based; details: NCI-H460, 72 h
[10] = biological target: Epidermal growth factor receptor (Homo sapiens, UniProt P00533); assay: Inhibition of EGFR (unknown origin) using poly(Glu, Tyr) 4:1 as substrate after 30 mins by HTRF assay
Epidermal growth factor receptor, sequence (P00533 whole entry): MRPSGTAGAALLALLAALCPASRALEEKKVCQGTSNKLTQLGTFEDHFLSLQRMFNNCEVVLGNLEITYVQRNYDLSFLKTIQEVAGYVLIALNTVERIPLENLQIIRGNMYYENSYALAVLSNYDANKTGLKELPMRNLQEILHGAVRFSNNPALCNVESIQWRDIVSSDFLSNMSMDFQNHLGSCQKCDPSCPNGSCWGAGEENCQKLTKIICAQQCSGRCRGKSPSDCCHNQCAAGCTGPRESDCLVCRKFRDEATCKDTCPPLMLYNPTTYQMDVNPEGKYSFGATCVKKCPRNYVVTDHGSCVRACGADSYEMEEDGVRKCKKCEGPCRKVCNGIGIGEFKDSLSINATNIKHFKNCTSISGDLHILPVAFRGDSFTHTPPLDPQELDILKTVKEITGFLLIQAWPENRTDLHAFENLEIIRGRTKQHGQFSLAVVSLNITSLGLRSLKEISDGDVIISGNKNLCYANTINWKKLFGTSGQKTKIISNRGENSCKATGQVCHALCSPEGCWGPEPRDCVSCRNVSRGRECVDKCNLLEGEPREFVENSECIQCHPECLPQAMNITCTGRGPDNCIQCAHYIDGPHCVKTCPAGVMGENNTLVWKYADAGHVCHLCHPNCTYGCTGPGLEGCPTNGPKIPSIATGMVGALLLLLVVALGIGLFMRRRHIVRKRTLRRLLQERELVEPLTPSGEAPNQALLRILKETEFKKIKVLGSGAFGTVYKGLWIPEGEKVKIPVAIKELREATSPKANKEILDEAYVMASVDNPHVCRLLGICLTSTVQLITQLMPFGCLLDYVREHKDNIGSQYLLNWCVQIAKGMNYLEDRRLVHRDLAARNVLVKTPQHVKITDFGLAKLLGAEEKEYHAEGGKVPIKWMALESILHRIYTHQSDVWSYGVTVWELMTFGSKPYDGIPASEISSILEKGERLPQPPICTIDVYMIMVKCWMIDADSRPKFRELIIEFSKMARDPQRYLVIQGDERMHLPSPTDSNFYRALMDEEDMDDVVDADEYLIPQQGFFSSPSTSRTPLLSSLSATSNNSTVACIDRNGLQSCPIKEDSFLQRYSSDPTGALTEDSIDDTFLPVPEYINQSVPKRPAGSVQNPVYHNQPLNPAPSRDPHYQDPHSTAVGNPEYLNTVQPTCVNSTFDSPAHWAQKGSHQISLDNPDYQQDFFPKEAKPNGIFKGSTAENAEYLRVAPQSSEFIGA

HT-29 [11] = assay: Potency index, ratio of foretinib IC50 to compound IC50 for antiproliferative activity against human HT-29 cells; type: functional
[12] = biological target: Vascular endothelial growth factor receptor 2 (Homo sapiens, UniProt P35968); assay: Inhibition of VEGFR2 (unknown origin) using poly(Glu, Tyr) 4:1 as substrate after 30 mins by HTRF assay

Compound	IC50 (A549 [1]) [nM]	IC50 (HT-29 [2]) [nM]	IC50 (U-87 MG) [nM]	IC50 (NCI-H460 [9]) [nM]	other results
Cn1ccc2c(Oc3ccc(NC(=O)c4cc5cccnc5n(-c5ccc(F)c(Cl)c5)c4=O)cc3F)ccnc21	3560	2460			
O=C(Nc1ccc(Oc2ccnc3[nH]ccc23)cc1)c1cc2cccnc2n(-c2ccc(Br)cc2)c1=O	280	270			
Cn1ccc2c(Oc3ccc(NC(=O)c4cc5cccnc5n(-c5ccc(Cl)cc5)c4=O)cc3)ccnc21	630	730			
O=C(Nc1ccc(Oc2ccnc3[nH]ccc23)c(F)c1)c1cc2cccnc2n(-c2ccc(F)cc2)c1=O	62	36	620	87	IC50 [3]: 1.81 nM; IC50 [4]: 684 nM; IC50 [5]: 1.92 nM; Ratio IC50 (NCI-H460 [6]): 3.2; Ratio IC50 (A549 [7]): 5.2; IC50 [8]: 1.16 nM; IC50 [10]: 633 nM; Ratio IC50 (HT-29 [11]): 7.2; IC50 [12]: 152 nM
O=C(Nc1ccc(Oc2ccnc3[nH]ccc23)cc1)c1cc2cccnc2n(-c2ccc(C(F)(F)F)cc2Cl)c1=O	3230	2160	6030	1950	
Cn1ccc2c(Oc3ccc(NC(=O)c4cc5cccnc5n(-c5ccc(Br)cc5)c4=O)cc3F)ccnc21	390	330	2580	420	
O=C(Nc1ccc(Oc2ccnc3[nH]ccc23)c(F)c1)c1cc2cccnc2n(-c2ccccc2)c1=O	190	160	1260	180	
O=C(Nc1ccc(Oc2ccnc3[nH]ccc23)cc1)c1cc2cccnc2n(-c2ccccc2)c1=O	360	290	1580	380	
Cn1ccc2c(Oc3ccc(NC(=O)c4cc5cccnc5n(-c5ccc(Cl)cc5)c4=O)cc3F)ccnc21	350	220			
COc1ccc(-n2c(=O)c(C(=O)Nc3ccc(Oc4ccnc5c4ccn5C)c(F)c3)cc3cccnc32)cc1	2750	1290			
Cn1ccc2c(Oc3ccc(NC(=O)c4cc5cccnc5n(-c5ccc(F)c(Cl)c5)c4=O)cc3)ccnc21	820	1210	2350	1210	
Cn1ccc2c(Oc3ccc(NC(=O)c4cc5cccnc5n(-c5ccc(Br)cc5F)c4=O)cc3F)ccnc21	2690	3290	6470	3150	
O=C(Nc1ccc(Oc2ccnc3[nH]ccc23)cc1)c1cc2cccnc2n(-c2ccc(F)c(Cl)c2)c1=O	680	560			
Cn1ccc2c(Oc3ccc(NC(=O)c4cc5cccnc5n(-c5ccc(Br)cc5F)c4=O)cc3)ccnc21	1630	2580			
COc1ccc(-n2c(=O)c(C(=O)Nc3ccc(Oc4ccnc5[nH]ccc45)cc3)cc3cccnc32)cc1	930	1260	2350	960	
O=C(Nc1ccc(Oc2ccnc3[nH]ccc23)c(F)c1)c1cc2cccnc2n(-c2ccc(C(F)(F)F)cc2Cl)c1=O	1020	1360			

Compound	IC50 (A549 [1]) [nM]	IC50 (HT-29 [2]) [nM]	IC50 (U-87 MG) [nM]	IC50 (NCI-H460 [9]) [nM]	other results
O=C(Nc1ccc(Oc2ccnc3[nH]ccc23)c(F)c1)c1cc2cccnc2n(-c2ccc(Br)cc2F)c1=O	460	820			
O=C(Nc1ccc(Oc2ccnc3[nH]ccc23)c(F)c1)c1cc2cccnc2n(-c2ccc(F)c(Cl)c2)c1=O	630	310	5230	1050	
Cn1ccc2c(Oc3ccc(NC(=O)c4cc5cccnc5n(-c5ccc(Br)cc5)c4=O)cc3)ccnc21	680	690			
Cn1ccc2c(Oc3ccc(NC(=O)c4cc5cccnc5n(-c5ccc(C(F)(F)F)cc5Cl)c4=O)cc3)ccnc21	8250	6050	12600	6950	
Cn1ccc2c(Oc3ccc(NC(=O)c4cc5cccnc5n(-c5ccccc5)c4=O)cc3F)ccnc21	430	510	3590	550	
O=C(Nc1ccc(Oc2ccnc3[nH]ccc23)cc1)c1cc2cccnc2n(-c2ccc(Cl)cc2)c1=O	290	280	3370	290	
O=C(Nc1ccc(Oc2ccnc3[nH]ccc23)cc1)c1cc2cccnc2n(-c2ccc(F)cc2)c1=O	210	160	1360	190	
O=C(Nc1ccc(Oc2ccnc3[nH]ccc23)c(F)c1)c1cc2cccnc2n(-c2ccc(Cl)cc2)c1=O	110	82			
O=C(Nc1ccc(Oc2ccnc3[nH]ccc23)c(F)c1)c1cc2cccnc2n(-c2ccc(Br)cc2)c1=O	210	120	1510	260	
Cn1ccc2c(Oc3ccc(NC(=O)c4cc5cccnc5n(-c5ccccc5)c4=O)cc3)ccnc21	850	620	5030	560	
Cn1ccc2c(Oc3ccc(NC(=O)c4cc5cccnc5n(-c5ccc(F)cc5)c4=O)cc3F)ccnc21	280	160	1320	250	
O=C(Nc1ccc(Oc2ccnc3[nH]ccc23)cc1)c1cc2cccnc2n(-c2ccc(Br)cc2F)c1=O	1570	2360			
COc1ccc(-n2c(=O)c(C(=O)Nc3ccc(Oc4ccnc5c4ccn5C)cc3)cc3cccnc32)cc1	3460	2050	5150	1920	
Cn1ccc2c(Oc3ccc(NC(=O)c4cc5cccnc5n(-c5ccc(C(F)(F)F)cc5Cl)c4=O)cc3F)ccnc21	3530	5830	10200	6010	
COc1ccc(-n2c(=O)c(C(=O)Nc3ccc(Oc4ccnc5[nH]ccc45)c(F)c3)cc3cccnc32)cc1	610	540			
Cn1ccc2c(Oc3ccc(NC(=O)c4cc5cccnc5n(-c5ccc(F)cc5)c4=O)cc3)ccnc21	210	250	2120	260	
